In patent publication US7477053B2, “Detection of electromagnetic fields” (priority 1994, dated 2009):
“Also recorded” adds a separate entry of the source.

Key:
rat liver Microsomes = experiment: Magnetometer detection of substrate metabolism by rat liver microsomes; details: for Magnetometer chart response to substrate, RLM + NADPH / Magnetometer chart response to substrate, RLM: rat liver microsomes 1 mg protein/ml; for Magnetometer chart response to substrate, RLM + NADPH: NADPH present; for Magnetometer chart response to substrate, RLM: no NADPH stated
pig liver chromatin = experiment: Magnetometer detection of substrate metabolism by pig liver chromatin
pig liver nuclei = experiment: Magnetometer detection of substrate response in pig liver nuclei; format: in vitro ADME; details: pig liver nuclei 1 mg protein/ml, without NADPH

| Structure (SMILES) | Metabolized by rat liver Microsomes (rat liver Microsomes; NADPH-dependent) | Metabolized by pig liver chromatin (pig liver chromatin; NADPH-dependent) | Metabolized by rat liver Microsomes (rat liver Microsomes; Non-NADPH-dependent) | also measured |
| --- | --- | --- | --- | --- |
| CC(=O)[C@H]1CC[C@H]2[C@@H]3CCC4=CC(=O)CC[C@]4(C)[C@H]3CC[C@]12C [progresterone, progesterone] | + |  |  |  |
| NCCCCN [putrescine] | + | + |  | Magnetometer chart response to substrate, PLN (pig liver nuclei): PLN. No response to PUTR until NADPH added.; Magnetometer chart response to substrate, RLM + NADPH (rat liver Microsomes): Increased slope; Magnetometer chart response to substrate, RLM + NADPH (rat liver Microsomes; listed as PU): PU (10) NADPH (10) response seen at end of record; also recorded: Response to PU |
| CN(C)CCC=C1c2ccccc2CCc2ccccc21 [amitryptyline] | + | + |  |  |
| N[C@@H](Cc1c[nH]cn1)C(=O)O [histidine] |  |  | + | Metabolized by pig liver chromatin (pig liver chromatin; Non-NADPH-dependent): ++; Magnetometer chart response to substrate, CHROM (pig liver chromatin; chromatin from pig liver nuclei 1 mg protein/ml, without NADPH, listed as HD): PBT (50) B 10 CHROM Response to HD; also recorded: PGT 100 CHROM (700) B. Response to HD; Magnetometer chart response to substrate, PLN (pig liver nuclei): PLN. Response to HD.; Magnetometer chart response to substrate, RLM + NADPH (rat liver Microsomes): RLM + NADPH. Two response to HD, short latency in both.; Magnetometer chart response to substrate, RLM (rat liver Microsomes): Enhanced slope |
| CNCCC(Oc1ccc(C(F)(F)F)cc1)c1ccccc1 (stereo not shown) [fluoxetine] | + |  |  |  |
| C[C@]12CCC(=O)C=C1CC[C@@H]1[C@@H]2[C@@H](O)C[C@@]2(C)[C@H]1CC[C@]2(O)C(=O)CO [cortisol] | + | − |  |  |
| Nc1ncnc2c1ncn2[C@@H]1O[C@H](CO)[C@@H](O)[C@H]1O [adenosine] |  |  | + | Magnetometer chart response to substrate, RLM (rat liver Microsomes): No further change in slope |
| Nc1ccccc1 [aniline] | + | − |  |  |
| N[C@H](CO)Cc1c[nH]cn1 [histidinol] |  |  | + | Metabolized by pig liver chromatin (pig liver chromatin; Non-NADPH-dependent): + |
| C[C@]12CC[C@@H]3c4ccc(O)cc4CC[C@H]3[C@@H]1CC[C@@H]2O [estridiol, β-estradiol] |  | − |  |  |
| NCCc1c[nH]cn1 [histamine] |  |  | + | Metabolized by pig liver chromatin (pig liver chromatin; Non-NADPH-dependent): + |
| Cc1c(N(C)C)c(=O)n(-c2ccccc2)n1C [aminopyrine] | + | − |  |  |
| C[C@]12CC[C@H]3[C@@H](CCC4=CC(=O)CC[C@@]43C)[C@@H]1CC[C@@H]2O [testosterone] | − | + |  | Magnetometer chart response to substrate, CHROM in presence of NADPH (pig liver chromatin; chromatin from pig liver nuclei, NADPH present): CHROM. Response to TEST in presence of NADPH |
